In patent publication US11051515B2, “3-acyl-benzamides and their use as herbicides” (Bayer Aktiengesellschaft, priority 2017, dated 2021):

Tests used:
POLCO [1] = assay: Pre-emergence action against POLCO; format: in vivo, Polygonum convolvulus; conditions: Fallopia convolvulus, 504 h; Dosage 320 g/ha, pre-emergence
Procedure, shortened: (§1)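 Seeds sown in sandy loam in wood-fiber pots and covered with soil. Greenhouse growth; visual damage scored after 3 weeks versus untreated controls (100% = dead, 0% = like control).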

SETVI [2] = assay: Post-emergence action against SETVI; format: in vivo, Setaria viridis; conditions: Setaria viridis, 504 h; post-emergence, dosage 80 g/ha, visual assessment about 3 weeks after treatment vs untreated controls; read-out: Post-emergence action against SETVI (herbicidal action in percent)
Procedure, shortened: (§2)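 Post-emergence foliar spray on greenhouse plants at the one-leaf stage, using wettable-powder or emulsion-concentrate formulations in water (600 to […], plus 0.2% wetting agent). Damage scored by eye roughly 3 weeks later against untreated plants: 0% = like control, 100% = dead.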

STEME [3] = assay: Post-emergence action against STEME; format: in vivo, Stellaria media; conditions: Stellaria media, 504 h; post-emergence, dosage 80 g/ha
Procedure, shortened: as §2

MATIN [4] = assay: Post-emergence action against MATIN; format: in vivo, Matricaria inodora; conditions: Tripleurospermum inodorum, 504 h; post-emergence, dosage 80 g/ha, visual assessment about 3 weeks after treatment vs untreated controls; read-out: Post-emergence action against MATIN (herbicidal action in percent)
Procedure, shortened: as §2

PHBPU [5] = assay: Post-emergence action against PHBPU; format: in vivo, Pharbitis purpurea; conditions: Ipomoea purpurea, 504 h; post-emergence, dosage 80 g/ha
Procedure, shortened: as §2

AMARE [6] = assay: Pre-emergence action against AMARE; format: in vivo, Amaranthus retroflexus; conditions: Amaranthus retroflexus, 504 h; pre-emergence, dosage 320 g/ha, scored visually after 3 weeks vs untreated controls; read-out: Pre-emergence action against AMARE (herbicidal activity)
Procedure, shortened: as §1

VERPE [7] = assay: Pre-emergence action against VERPE; format: in vivo, Veronica persica; conditions: Veronica persica, 504 h; Dosage 320 g/ha, pre-emergence
Procedure, shortened: as §1

ABUTH [8] = assay: Post-emergence action against ABUTH; format: in vivo, Abutilon theophrasti; conditions: Abutilon theophrasti, 504 h; post-emergence, dosage 80 g/ha, visual assessment about 3 weeks after treatment vs untreated controls; read-out: Post-emergence action against ABUTH (herbicidal action in percent)
Procedure, shortened: as §2

CYPES [9] = assay: Pre-emergence action against CYPES; format: in vivo, Cyperus esculentus; conditions: Cyperus esculentus, 504 h; pre-emergence, dosage 320 g/ha, scored visually after 3 weeks vs untreated controls; read-out: Pre-emergence action against CYPES (herbicidal activity)
Procedure, shortened: as §1

POLCO [10] = assay: Post-emergence action against POLCO; format: in vivo, Polygonum convolvulus; conditions: Fallopia convolvulus, 504 h; post-emergence, dosage 80 g/ha
Procedure, shortened: as §2

ECHCG [11] = assay: Pre-emergence action against ECHCG; format: in vivo, Echinochloa crus-galli; conditions: Echinochloa crus-galli, 504 h; pre-emergence, dosage 320 g/ha, scored visually after 3 weeks vs untreated controls; read-out: Pre-emergence action against ECHCG (herbicidal activity)
Procedure, shortened: as §1

STEME [12] = assay: Pre-emergence action against STEME; format: in vivo, Stellaria media; conditions: Stellaria media, 504 h; Dosage 320 g/ha, pre-emergence
Procedure, shortened: as §1

AMARE [13] = assay: Post-emergence action against AMARE; format: in vivo, Amaranthus retroflexus; conditions: Amaranthus retroflexus, 504 h; post-emergence, dosage 80 g/ha, visual assessment about 3 weeks after treatment vs untreated controls; read-out: Post-emergence action against AMARE (herbicidal action in percent)
Procedure, shortened: as §2

ECHCG [14] = assay: Post-emergence action against ECHCG; format: in vivo, Echinochloa crus-galli; conditions: Echinochloa crus-galli, 504 h; post-emergence, dosage 80 g/ha, visual assessment about 3 weeks after treatment vs untreated controls; read-out: Post-emergence action against ECHCG (herbicidal action in percent)
Procedure, shortened: as §2

ALOMY [15] = assay: Pre-emergence action against ALOMY; format: in vivo, Alopecurus myosuroides; conditions: Alopecurus myosuroides, 504 h; dosage 320 g/ha; pre-emergence; scored visually after 3 weeks vs untreated controls; 100% = plants have died, 0% = like control plants; read-out: Pre-emergence action against ALOMY (herbicidal activity in percent)
Procedure, shortened: as §1

ALOMY [16] = assay: Post-emergence action against ALOMY; format: in vivo, Alopecurus myosuroides; conditions: Alopecurus myosuroides, 504 h; Dosage 80 g/ha, post-emergence
Procedure, shortened: as §2

LOLMU [17] = assay: Post-emergence action against LOLMU; format: in vivo, Lolium multiflorum; conditions: Lolium multiflorum, 504 h, dosage 80 g/ha, visual assessment about 3 weeks after treatment vs untreated controls, read-out: Post-emergence action against LOLMU (herbicidal action in percent)
Protocol: Seeds of monocotyledonous and dicotyledonous weed and crop plants are laid out in sandy loam soil in wood-fiber pots, covered with soil and cultivated in a greenhouse under good growth conditions. 2 to 3 weeks after sowing, the test plants are treated at the one-leaf stage. The compounds of the invention, formulated in the form of wettable powders (WP) or as emulsion concentrates (EC), are then sprayed onto the green parts of the plants in the form of an aqueous suspension or emulsion at a water application rate equating to […], with addition of 0.2% wetting agent. After the test plants have been left to stand in the greenhouse under optimal growth conditions for about 3 weeks, the action of the preparations is assessed visually in comparison to untreated controls (herbicidal action in percent (%): 100% activity=the plants have died, 0% activity=like control plants). […] At the same time, inventive compounds leave Gramineae crops such as barley, wheat, rye, millet/Sorghum, corn or rice virtually undamaged when applied post-emergence, even at high active ingredient dosages. In addition, some substances are also harmless to dicotyledonous crops such as soya, cotton, oilseed rape, sugar beet or potatoes. Some of the compounds according to the invention have high selectivity and are therefore suitable for controlling unwanted vegetation in agricultural crops by the post-emergence method. The data of Tables B18 to B34 below illustrate, in an exemplary manner, the […] herbicidal action of the compounds according to the invention, the herbicidal activity being stated in percent.

CYPES [18] = assay: Post-emergence action against CYPES; format: in vivo, Cyperus esculentus; conditions: Cyperus esculentus, 504 h; post-emergence, dosage 80 g/ha, visual assessment about 3 weeks after treatment vs untreated controls; read-out: Post-emergence action against CYPES (herbicidal action in percent)
Procedure, shortened: as §2

VERPE [19] = assay: Post-emergence action against VERPE; format: in vivo, Veronica persica; conditions: Veronica persica, 504 h, dosage 80 g/ha
Procedure, shortened: as §2

LOLMU [20] = assay: Pre-emergence action against LOLMU; format: in vivo, Lolium multiflorum; conditions: Lolium multiflorum, 504 h, dosage 320 g/ha, scored visually after 3 weeks vs untreated controls, read-out: Pre-emergence action against LOLMU (herbicidal activity)
Procedure, shortened: as §1

AVEFA [21] = assay: Pre-emergence action against AVEFA; format: in vivo, Avena fatua; conditions: Avena fatua, 504 h, dosage 320 g/ha, scored visually after 3 weeks vs untreated controls, read-out: Pre-emergence action against AVEFA (herbicidal activity)
Procedure, shortened: as §1

VIOTR [22] = assay: Post-emergence action against VIOTR; format: in vivo, Viola tricolor; conditions: Viola tricolor, 504 h; post-emergence, dosage 80 g/ha
Procedure, shortened: as §2

MATIN [23] = assay: Pre-emergence action against MATIN; format: in vivo, Matricaria inodora; conditions: Tripleurospermum inodorum, 504 h; Dosage 320 g/ha, pre-emergence
Procedure, shortened: as §1

ABUTH [24] = assay: Pre-emergence action against ABUTH; format: in vivo, Abutilon theophrasti; conditions: Abutilon theophrasti, 504 h; pre-emergence, dosage 320 g/ha, scored visually after 3 weeks vs untreated controls; read-out: Pre-emergence action against ABUTH (herbicidal activity)
Procedure, shortened: as §1

PHBPU [25] = assay: Pre-emergence action against PHBPU; format: in vivo, Pharbitis purpurea; conditions: Ipomoea purpurea, 504 h; Dosage 320 g/ha, pre-emergence
Procedure, shortened: as §1

SETVI [26] = assay: Pre-emergence action against SETVI; format: in vivo, Setaria viridis; conditions: Setaria viridis, 504 h; pre-emergence, dosage 320 g/ha, scored visually after 3 weeks vs untreated controls; read-out: SETVI (Table B8, pre-emergence herbicidal activity)
Procedure, shortened: as §1

AVEFA [27] = assay: Post-emergence action against AVEFA; format: in vivo, Avena fatua; conditions: Avena fatua, 504 h; post-emergence, dosage 80 g/ha, visual assessment about 3 weeks after treatment vs untreated controls; read-out: Post-emergence action against AVEFA (herbicidal action in percent)
Procedure, shortened: as §2

VIOTR [28] = assay: Pre-emergence action against VIOTR; format: in vivo, Viola tricolor; conditions: Viola tricolor, 504 h; Dosage 320 g/ha, pre-emergence
Procedure, shortened: as §1

CCC(=O)c1c(Cl)ccc(C(=O)Nc2nnnn2C)c1Cl [1-115]
100%: pest or weed control at 80 g/ha (STEME [3]) | pest or weed control at 80 g/ha (MATIN [4]) | pest or weed control at 320 g/ha (AMARE [6]) | pest or weed control at 320 g/ha (VERPE [7]) | pest or weed control at 320 g/ha (CYPES [9]) | pest or weed control at 80 g/ha (POLCO [10]) | pest or weed control at 320 g/ha (ECHCG [11]) | pest or weed control at 320 g/ha (STEME [12]) | pest or weed control at 320 g/ha (ALOMY [15]) | pest or weed control at 80 g/ha (VERPE [19]) | pest or weed control at 320 g/ha (LOLMU [20]) | pest or weed control at 320 g/ha (AVEFA [21]) | pest or weed control at 80 g/ha (VIOTR [22]) | pest or weed control at 320 g/ha (MATIN [23]) | pest or weed control at 320 g/ha (ABUTH [24])
90%: pest or weed control at 80 g/ha (SETVI [2]) | pest or weed control at 80 g/ha (PHBPU [5]) | pest or weed control at 80 g/ha (ABUTH [8]) | pest or weed control at 80 g/ha (AMARE [13]) | pest or weed control at 80 g/ha (ECHCG [14]) | pest or weed control at 80 g/ha (ALOMY [16]) | pest or weed control at 80 g/ha (LOLMU [17]) | pest or weed control at 80 g/ha (CYPES [18]) | pest or weed control at 320 g/ha (PHBPU [25]) | pest or weed control at 320 g/ha (SETVI [26])
80%: pest or weed control at 320 g/ha (POLCO [1])

CC(=O)c1c(C(F)(F)F)ccc(C(=O)Nc2nnnn2C)c1Br [1-195]
90%: pest or weed control at 80 g/ha (SETVI [2]) | pest or weed control at 80 g/ha (MATIN [4]) | pest or weed control at 80 g/ha (PHBPU [5]) | pest or weed control at 80 g/ha (POLCO [10]) | pest or weed control at 320 g/ha (STEME [12]) | pest or weed control at 80 g/ha (ECHCG [14]) | pest or weed control at 320 g/ha (ALOMY [15]) | pest or weed control at 80 g/ha (LOLMU [17]) | pest or weed control at 320 g/ha (LOLMU [20])
100%: pest or weed control at 80 g/ha (STEME [3]) | pest or weed control at 320 g/ha (AMARE [6]) | pest or weed control at 320 g/ha (VERPE [7]) | pest or weed control at 320 g/ha (VIOTR [28]) | pest or weed control at 320 g/ha (CYPES [9]) | pest or weed control at 320 g/ha (ECHCG [11]) | pest or weed control at 320 g/ha (AVEFA [21]) | pest or weed control at 80 g/ha (VIOTR [22]) | pest or weed control at 320 g/ha (MATIN [23]) | pest or weed control at 320 g/ha (ABUTH [24]) | pest or weed control at 320 g/ha (SETVI [26])
80%: pest or weed control at 320 g/ha (POLCO [1]) | pest or weed control at 80 g/ha (AVEFA [27]) | pest or weed control at 80 g/ha (ABUTH [8]) | pest or weed control at 80 g/ha (CYPES [18]) | pest or weed control at 80 g/ha (VERPE [19])

Cn1nnnc1NC(=O)c1ccc(Cl)c(C(=O)C2CC2)c1Cl [1-116]
90%: pest or weed control at 320 g/ha (POLCO [1]) | pest or weed control at 80 g/ha (MATIN [4]) | pest or weed control at 80 g/ha (PHBPU [5]) | pest or weed control at 80 g/ha (ABUTH [8]) | pest or weed control at 320 g/ha (STEME [12]) | pest or weed control at 80 g/ha (AMARE [13]) | pest or weed control at 80 g/ha (ECHCG [14]) | pest or weed control at 80 g/ha (ALOMY [16]) | pest or weed control at 80 g/ha (VIOTR [22]) | pest or weed control at 320 g/ha (ABUTH [24])
100%: pest or weed control at 80 g/ha (SETVI [2]) | pest or weed control at 80 g/ha (STEME [3]) | pest or weed control at 320 g/ha (AMARE [6]) | pest or weed control at 80 g/ha (AVEFA [27]) | pest or weed control at 320 g/ha (VERPE [7]) | pest or weed control at 320 g/ha (VIOTR [28]) | pest or weed control at 320 g/ha (ECHCG [11]) | pest or weed control at 320 g/ha (ALOMY [15]) | pest or weed control at 80 g/ha (LOLMU [17]) | pest or weed control at 320 g/ha (LOLMU [20]) | pest or weed control at 320 g/ha (AVEFA [21]) | pest or weed control at 320 g/ha (MATIN [23]) | pest or weed control at 320 g/ha (SETVI [26])
